{
  "source": "patent US20120134978A1",
  "about": "“Cross-Linking of Superoxide Dismutase Monomers” (Brandeis University, priority 2009, published 2012)",
  "key": {"wtSOD1 [1]": {"target": "T1, wtSOD1 (Homo sapiens, UniProt P00441)", "T1 construct": "purchased Sigma-Aldrich (St. Louis, Mo.)", "T1 sequence (P00441 2-154 limits assumed)": "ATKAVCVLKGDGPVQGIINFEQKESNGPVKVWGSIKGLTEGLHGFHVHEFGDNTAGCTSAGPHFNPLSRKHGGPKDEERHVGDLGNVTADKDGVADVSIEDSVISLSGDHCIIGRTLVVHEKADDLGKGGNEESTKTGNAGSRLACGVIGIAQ", "assay": "Cross-linking and western blots (SDS-PAGE) of SOD1", "assay_type": "biochemical", "settings": "for SOD1 dimer formation by cross-linking (western blot): 1:1 or 1:3 molar ratio SOD1 to cross-linker, 1 hour, room temperature"}, "wtSOD1 [2]": {"target": "T1, wtSOD1", "assay": "SOD1 activity assay (NBT gel based)", "assay_type": "biochemical", "settings": "~42 μM SOD1, 80 μM copper and zinc and/or 42 μM cross-linker", "description": "(§1) The DTME cross-linked samples were divided in half, where one half was incubated with 10 mM TCEP and one was not, then analyzed on a 12.5% polyacrylamide gel. The gel was stained using a solution containing 50 mM potassium phosphate, pH 7.8, 1 tablet NBT (10 mg/tablet), and 0.1 mg/mL riboflavin for 45 minutes in the dark. After the 45 minute incubation 1 μL/mL TEMED was added and the gel was exposed to light for 2 minutes. Superoxide radicals create insoluble blue formazon from NBT. SOD1 acitivity is seen as a colorless band since SOD1 scavenges the superoxide, thus inhibiting the blue color formation. Repeated in triplicate."}, "G85R SOD1 [3]": {"target": "T2, G85R SOD1 (Homo sapiens, UniProt P00441, G86R)", "T2 construct": "made in house; host or cells: S. cerevisiae EGy118ΔSOD1, vector YEp-351", "T2 sequence (P00441 2-154 G86R limits assumed)": "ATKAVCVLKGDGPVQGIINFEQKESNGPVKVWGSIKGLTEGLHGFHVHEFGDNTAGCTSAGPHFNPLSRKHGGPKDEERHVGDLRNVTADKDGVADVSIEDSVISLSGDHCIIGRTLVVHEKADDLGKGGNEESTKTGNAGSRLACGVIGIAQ", "assay": "SOD1 activity assay (NBT gel based)", "assay_type": "biochemical", "settings": "~42 μM G85R; for SOD1 activity on addition of the substance: excess copper, zinc or cross-linker", "description": "as §1"}, "G93A SOD1 [4]": {"target": "T3, G93A SOD1 (Homo sapiens, UniProt P00441, G94A)", "T3 construct": "made in house; host or cells: S. cerevisiae EGy118ΔSOD1, vector YEp-351", "T3 sequence (P00441 2-154 G94A limits assumed)": "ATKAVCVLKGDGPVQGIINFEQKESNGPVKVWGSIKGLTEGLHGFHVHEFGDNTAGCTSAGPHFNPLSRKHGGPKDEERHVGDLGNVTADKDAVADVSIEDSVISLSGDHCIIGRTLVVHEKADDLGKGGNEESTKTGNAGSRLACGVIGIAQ", "assay": "SOD1 activity assay (NBT gel based)", "assay_type": "biochemical", "settings": "~42 μM SOD1, 80 μM copper and zinc and/or 42 μM cross-linker", "description": "as §1"}, "G85R SOD1 [5]": {"target": "T2, G85R SOD1", "assay": "Peptide sequencing using LC-FTMS (bottom-up analysis, site of cross-linking)", "assay_type": "binding", "settings": "1:1 molar ratio, Glu-C digest"}, "G93A SOD1 [6]": {"target": "T3, G93A SOD1", "assay": "LC-FTMS of cross-linked SOD1 (stoichiometry of cross-linker binding)", "settings": "1:1 molar ratio", "description": "G93A was cross-linked using DMTE or BMOE as previously described at a 1:1 molar ratio (5 μM:5 μM). After one hour, 3% acetonitrile and 1% formic acid was added to the sample and spun at 14,000 RPM for 10 minutes to pellet any precipitated protein. The cross-linked sample was placed in an autosampler and 1 μL of cross-linked sample was aspirated into either a Proxeon 1D HPLC or Eksigent 2D HPLC with the following gradient: 3-50% B for 30 minutes, 50-95% B for 7 minutes, 95% B for 5 minutes, 95-3% B for 1 minute, and 3% B for 15 minutes. Buffer A is HPLC water with 0.1% formic acid and buffer B is 100% acetonitrile, 0.1% formic acid. After liquid chromatography, the sample was ionized using nanospray ionization and analyzed using a […] Bruker Daltonics FTMS. The FTMS was controlled using Apex control software and source parameters were controlled using the Apollo II software. Spectra (monomeric and dimeric G93A) were collected using a skimmer 1 voltage of 35-40V, whereas funnel skimmer dissociation was used to fragment the cross-linked G93A by increasing skimmer one voltage 140 volts. LC-FTMS data of cross-linked and non-cross-linked G93A were analyzed using Data Analysis software (Bruker Daltonics). These experiments were repeated in triplicate. […]"}, "wtSOD1 [7]": {"target": "T1, wtSOD1", "assay": "MALDI-TOF MS of cross-linked SOD1", "assay_type": "biochemical", "settings": "1:1 molar ratio"}, "human": {"tested_on": "human", "settings": "LD50 values in human; cited from earlier work"}, "G85R SOD1 [8]": {"target": "T2, G85R SOD1", "assay": "Thermofluorescence stability assay (SYPRO Orange)", "assay_type": "binding", "settings": "10 μM G85R, 20 μM copper, 20 μM zinc"}, "G93A SOD1 [9]": {"target": "T3, G93A SOD1", "assay": "Thermofluorescence stability assay (SYPRO Orange)", "assay_type": "binding", "settings": "10 μM G93A, 20 μM copper, 20 μM zinc"}},
  "note": "Entries after “also recorded” stand apart in the source; their conditions may differ.",
  "data": [
    {"molecule": "O=C1C=CC(=O)N1CCOCCOCCN1C(=O)C=CC1=O", "note": "[BM(PEG)2, 1,8-bis-Maleimidodiethyleneglycol]", "values": [
      {"measurement": "SOD1 dimer formation by cross-linking (western blot)", "setting": "wtSOD1 [1]", "result": "resulted in the stabilization of SOD1 dimer"}
    ]},
    {"molecule": "O=C1C=CC(=O)N1CCCCN1C(=O)C=CC1=O", "note": "[BMB, 1,4bismaleimidobutane]", "values": [
      {"measurement": "SOD1 dimer formation by cross-linking (western blot)", "setting": "wtSOD1 [1]", "result": "resulted in the stabilization of SOD1 dimer"}
    ]},
    {"molecule": "O=C1C=CC(=O)N1CC(O)C(O)CN1C(=O)C=CC1=O", "note": "(stereo not shown) [BMDB, 1,4-bismaleimidyl-2,3-dihydroxybutane]", "values": [
      {"measurement": "SOD1 dimer formation by cross-linking (western blot)", "setting": "wtSOD1 [1]", "result": "resulted in the stabilization of SOD1 dimer"}
    ]},
    {"molecule": "O=C1C=CC(=O)N1CCN1C(=O)C=CC1=O", "note": "[BMOE, bis(maleimido)ethane]", "values": [
      {"measurement": "SOD1 activity on addition of the substance", "setting": "wtSOD1 [2]", "result": "unchanged"},
      {"measurement": "SOD1 activity on addition of the substance", "setting": "G85R SOD1 [3]", "result": "increases"},
      {"measurement": "SOD1 activity on addition of the substance", "setting": "G93A SOD1 [4]", "result": "unaffected"},
      {"measurement": "cross-reactivity with other SOD1 cysteine residues Cys6, Cys57 and Cys146", "setting": "G85R SOD1 [5]", "result": "relatively low"},
      {"measurement": "site of cross-linking", "setting": "G85R SOD1 [5]", "result": "mainly through Cys111"},
      {"measurement": "stoichiometry of cross-linker binding", "setting": "G93A SOD1 [6]", "result": "consistent with the molecular weight of G93A plus one cross-linker"}
    ]},
    {"molecule": "O=C1C=CC(=O)N1CCSSCCN1C(=O)C=CC1=O", "note": "[DTME, Dithio-bismaleimidoethane]", "values": [
      {"measurement": "SOD1 activity in the presence of copper, zinc and cross-linker", "setting": "G85R SOD1 [3]; 80 μM copper and zinc and 42 μM cross-linker", "result": "even larger increase in activity; also recorded: largest increase in activity"},
      {"measurement": "SOD1 activity on addition of the substance", "setting": "G85R SOD1 [3]", "result": "increases"},
      {"measurement": "state of cross-linked SOD1 dimer in presence of reducing agent (DTT)", "setting": "wtSOD1 [1]; 1:1 molar ratio, SDS PAGE with reducing agent", "result": "only monomer was observed; also recorded: returning the dimer to its monomeric form; also recorded: became a monomer in the presence of reducing agent"},
      {"measurement": "SOD1 dimer formation by cross-linking (western blot)", "setting": "wtSOD1 [1]", "result": "resulted in the stabilization of SOD1 dimer; also recorded: resulted in dimeric SOD1"},
      {"measurement": "dimer observed in MALDI-TOF spectra of cross-linked SOD1", "setting": "wtSOD1 [7]", "result": "The majority of the species observed is dimeric wtSOD1"},
      {"measurement": "stoichiometry of cross-linker binding", "setting": "G93A SOD1 [6]", "result": "one equivalent of cross-linker produced one equivalent of dimer; also recorded: consistent with the molecular weight of G93A plus one cross-linker"}
    ]},
    {"molecule": "C=CS(=O)(=O)CCCCCCS(=O)(=O)C=C", "note": "[HBVS, 1,6-Hexanol-bis-vinylsulfone]", "values": [
      {"measurement": "SOD1 dimer formation by cross-linking (western blot)", "setting": "wtSOD1 [1]", "result": "did not result in formation of dimeric SOD1; also recorded: did not appear to cross-link SOD1"}
    ]},
    {"molecule": "O=C(CI)NCCNC(=O)CI", "note": "[N,N′-ethylenebis-(iodoacetamide)]", "values": [
      {"measurement": "LD50", "setting": "human", "result": 9, "unit": "mg/kg"}
    ]},
    {"molecule": "O=C1C=CC(=O)N1CCN(CCN1C(=O)C=CC1=O)CCN1C(=O)C=CC1=O", "note": "[TMEA, Tris[2-maleimidoethyl]-amione]", "values": [
      {"measurement": "relative cross-linking efficiency (western blot)", "setting": "wtSOD1 [1]; 1:1 or 1:3 cross-linker to protein", "result": "most efficient cross-linker"},
      {"measurement": "SOD1 dimer formation by cross-linking (western blot)", "setting": "wtSOD1 [1]", "result": "resulted in the stabilization of SOD1 dimer"}
    ]},
    {"molecule": "NNc1ccccc1", "note": "[phenylhydrazine]", "values": [
      {"measurement": "LD50", "setting": "human", "result": 80, "unit": "mg/kg"}
    ]},
    {"molecule": "copper and zinc", "values": [
      {"measurement": "stabilization by excess copper and zinc alone", "setting": "G85R SOD1 [8]", "result": "~20", "unit": "°C"},
      {"measurement": "SOD1 activity on addition of the substance", "setting": "wtSOD1 [2]; zinc", "result": "unaffected; also recorded: unchanged"},
      {"measurement": "SOD1 activity on addition of the substance", "setting": "G85R SOD1 [3]", "result": "increases"},
      {"measurement": "SOD1 activity on addition of the substance", "setting": "G93A SOD1 [4]", "result": "unaffected"},
      {"measurement": "effect of excess copper and zinc on stability", "setting": "G93A SOD1 [9]", "result": "no affect; also recorded: little effect"}
    ]}
  ]
}
